Experimental data reported in PubChem BioAssay (NCI).
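Test compounds were applied to cells in 96-well plates for 48 hours at 5 doses. Abbreviation: GI50, concentration required for 50% inhibition of growth. Definition used: TGI = concentration required for complete inhibition of growth.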 *1 amine or outer side, *2 acyl side, *3 side chain or, on linkers, in order; H or OH if unused. Where a SMILES comes first, the peptide text is derived from it. Bridges are numbered along the chain shown (N, C = ends). [ ]: non-standard residue; d: D form. The star is where a group is joined. X19 = O=C([C@H](N[*:1])c1ccc(O[C@H]2O[C@@H](CO)[C@@H](O)[C@@H](O)[C@H]2O[C@@H]2O[C@H](CO)[C@H](O)[C@H](O)[C@@H]2O)cc1)[*:2]; X18 = NC(=O)[C@@H](O[*:3])[C@H](N[*:1])C(=O)[*:2]; X20 = O=C([C@H](N[*:1])c1ccc(O)c(Cl)c1)[*:2]; d(aThr) = C[C@@H](O)[C@@H](N)C(=O)O; dHpg = N[C@@H](C(=O)O)c1ccc(O)cc1; X17 = CC(C)C/C=C/C=C/C(=O)*; dOrn = NCCC[C@@H](N)C(=O)O

What was measured:
Test in all cases: inhibition of tumour cell growth, NCI panel, 48 h
HT29 colon = tested on: HT29 colon
NCI-H226 lung = tested on: NCI-H226 lung
NCI-H522 lung = tested on: NCI-H522 lung
A498 renal = tested on: A498 renal
SNB-75 CNS = tested on: SNB-75 CNS
HCC-2998 colon = tested on: HCC-2998 colon
786-0 renal = tested on: 786-0 renal
SK-OV-3 ovarian = tested on: SK-OV-3 ovarian
SW-620 colon = tested on: SW-620 colon
HOP-92 NSCLC = tested on: HOP-92 NSCLC

Row | Compound | GI50 (HT29 colon) [µM] | TGI (HT29 colon) [µM] | GI50 (NCI-H226 lung) [µM] | TGI (NCI-H226 lung) [µM] | GI50 (NCI-H522 lung) [µM] | TGI (NCI-H522 lung) [µM] | GI50 (A498 renal) [µM] | TGI (A498 renal) [µM] | GI50 (SNB-75 CNS) [µM] | TGI (SNB-75 CNS) [µM] | GI50 (HCC-2998 colon) [µM] | TGI (HCC-2998 colon) [µM] | GI50 (786-0 renal) [µM] | TGI (786-0 renal) [µM] | GI50 (SK-OV-3 ovarian) [µM] | TGI (SK-OV-3 ovarian) [µM] | GI50 (SW-620 colon) [µM] | TGI (SW-620 colon) [µM] | TGI (HOP-92 NSCLC) [µM] | GI50 (HOP-92 NSCLC) [µM]
1 | CCCCNC(=O)Oc1ccc2c(=O)c3sc4c(=O)c5ccccc5c(=O)c4c3c(=O)c2c1 | 2.31 | 5.6 | 1.12 | 2.47 | 0.379 | 1.64 | 1.04 | 2.22 | 0.189 | 0.421 | 0.511 | 2.01 | 1.77 | 4.23 | 1.4 | 2.8 | 0.409 | 1.58 |  | 
2 | CC(=O)Nc1ccc2oc(=O)c3ccccc3c2c1 |  | > 100 |  | > 100 |  | > 100 |  | > 100 |  | > 100 |  | > 100 |  | > 100 |  |  |  | > 100 | > 100 | 
3 | O=C(Nc1ccc(Cl)cc1)c1cc2cc(F)ccc2cc1O | 3.67 | 40 | 2.5 | 7.99 | 0.359 | 3.03 | 0.553 | 2.74 |  |  | 3.13 | > 100 | 2.9 | > 100 | 1.08 | 5.76 | 2.49 | > 100 | 0.809 | 0.288
4 | N#Cc1nn(C2OC(COC(=O)c3ccccc3)C(OC(=O)c3ccccc3)C2OC(=O)c2ccccc2)c2nc[nH]c(=O)c12 (centres undefined) |  | > 100 |  | > 100 |  | > 100 |  | 47.2 |  | > 100 |  | > 100 |  | > 100 |  | > 100 |  | > 100 |  | 
5 | CC(=O)O[C@H]1CCC2[C@@H]3CCC4Nc5c(cnn5-c5ccccc5)C[C@]4(C)C3CC[C@@]21C (some centres undefined) |  | 34.9 |  | 27.8 |  | 29.7 |  | > 100 |  | 20.2 |  | 25.3 |  | 67.5 |  | 42.4 |  | 31.3 |  | 
6 | ClC1(c2ccccc2)c2ccc(Br)cc2-c2cc(Br)ccc21 |  | 26 |  | 36.4 |  | 30.6 |  | 32.8 |  |  |  | 36.2 |  | 30.2 |  | 39.1 |  | 36.3 | 29.2 | 
7 | CC(C)C/C=C/C=C/C(=O)N[C@@H](CC(N)=O)C(=O)N[C@@H]1C(=O)N[C@H](c2ccc(O)cc2)C(=O)N[C@H](CCCN)C(=O)N[C@H]([C@@H](C)O)C(=O)N[C@H](c2ccc(O)cc2)C(=O)N[C@H](c2ccc(O)cc2)C(=O)N[C@H]([C@H](C)O)C(=O)N[C@H](Cc2ccccc2)C(=O)N[C@H](CCCN)C(=O)N[C@H](c2ccc(O[C@H]3O[C@@H](CO)[C@@H](O)[C@@H](O)[C@H]3O[C@@H]3O[C@H](CO)[C@H](O)[C@H](O)[C@@H]3O)cc2)C(=O)N[C@H]([C@H](C)O)C(=O)N[C@H](c2ccc(O)cc2)C(=O)NCC(=O)N[C@H](CC(C)C)C(=O)N[C@H](C)C(=O)N[C@H](c2ccc(O)c(Cl)c2)C(=O)O[C@@H]1C(N)=O (X17-N[X18][dHpg][dOrn][d(aThr)][dHpg][dHpg][dT][dF][dOrn][X19][dT][dHpg]G[dL][dA][X20]; ester 2-C) | 33.2 | > 100 |  |  | 33.9 | > 100 | 80.9 | > 100 | 29.4 | 79.8 | 57.2 | > 100 | 25 | 56.7 | 25.3 | 64.9 | 26.2 | 74.8 | > 100 | 80
8 | CCCCCCCC(=O)OCC1OC(n2cc(F)c(=O)[nH]c2=O)C(NC(=O)OCc2ccccc2)C(OC(=O)CCCCCCC)C1O (centres undefined) |  | > 100 |  |  |  | 72 |  | > 100 |  | > 100 |  | > 100 |  | 65.1 |  | > 100 |  | > 100 | 61.4 | 
